A short description of series [1]: Teratogenic activity. Conditions: in vivo. The text has this:
Nau, H. et al., Pharmacol. & Toxicol. (1991) 69:310-321.

The subject of series [2] is neuro-2a neuroblastoma cells. Nature of the series: Neurite outgrowth / differentiation, scanning electron microscopy. The class given is cell-based, mouse. The conditions noted are these: for neurite outgrowth: 48 hours. Here is the method:
Neuroblastoma cells were cultured in the presence of 2-n-butyl-4-pentynoic acid (1.0 mM, 2 mM); and 2-n-pentyl-pentynoic acid (0.3 mM, 0.5 mM). Test medium was added to cells after 24 hours in culture and maintained as a test medium for 48 hours after which they were fixed in 2.5% glutaraldehyde and […] sodium phosphate buffer overnight at 4° C. Cells were postfixed with osmium tetroxide and prepared for scanning microscopy as described.
The neurotrophic activity associated with valproate and its analogues may be determined based on in vitro indices of differentiation, including inhibition of mitosis, increase in neurite outgrowth, and NCAM expression. For example, the ability to promote neurite outgrowth is correlated with enhanced survival of certain cultured neural cells including embryonic sensory and sympathetic neurons. Proliferating immature neuroblasts, in vitro, have a rounded shape and are loosely adherent to culture surfaces. In the presence of a neurotrophic factor, these cells become more adherent and sprout processes known in the art as neurites. Accordingly, in vitro neurite outgrowth may be used as an assay for determining concentrations of compound in contact with target cells which would be expected to achieve desirable neuroprotecting effects.
Cells which were to be examined by scanning electron microscopy were grown as previously described in 25cm^2 flasks. Following 48 h exposure to the agent, cells were fixed in a solution of 2.5% glutaraldehyde in 0.1M sodium phosphate buffer, pH 7.4, overnight at 4° C. The cells were post-fixed subsequently in phosphate-buffered 1% osmium tetroxide for 1 h at room temperature, washed and were dehydrated gradually for 1 hour using a series of ethanol concentrations stepwise from 20, 40, 60, 80 to a final concentration 100%.
Sections of the base of the tissue culture flask were removed and were critical point dried to minimize shrinkage and cracking. This was achieved by placing the samples in a Polaron critical point dryer and purging the chamber several times with CO2 to remove all traces of ethanol. After 1 h the temperature and pressure were increased to 40° C. and 1200 lbs/in^2, respectively, at which stage the critical point for carbon dioxide had been reached and drying was completed.
Specimens were subsequently removed from the chamber, mounted on stubs suitable for scanning electron microscopy using conductive carbon cement (Neubauer) and were sputter coated with gold under vacuum (5×10^−2 torr) in the presence of argon gas at a current of 20 mA for 3 minutes (Polaron E5100). Following gold-coating, samples were examined in the scanning electron microscope (JEOL 35C) at an accelerating voltage of 15 kV.

In series [3] the test system is mouse neuro-2a neuroblastoma cells. Description: Antiproliferative assay, cell counting after 48 h. It counts as cell-based. As to the method:
Neuro-2a neuroblastoma cells were cultured in 25 cm^2 flasks for 48 hours in the presence of test medium. After 48 hours, cells were observed, photographed and harvested with trypsin for counting using a haemocytometer. Cell number is expressed as percentage mean±SEM (n=3) of control values.
Accordingly, representative cells may be cultured in vitro in the presence of varying concentration of test compound. At an appropriate time, the cells under the different conditions are examined for the appropriate parameter (for example, cell number for antimitotic activity; neurite outgrowth for neurotrophic activity) and the ED50 may be determined.
Antiproliferative and neuroprotective actions should be sufficient to achieve the desired inhibition of mitosis or neuroprotection without serious hetaptotoxic side effects. […] Dose response curves may be determined first in vitro in a relevant animal model to determine ranges of expected therapeutic concentrations in humans. […] Other cell lines, including those of human origin may be used to assesses activity as well.
The mouse neuro-2a neuroblastoma cell line (Klebe and Ruddle, 1969 J. Cell Biol., 43:69A) was cultured in Dulbecco's modified Eagle's medium (DMEM; Flow Laboratories) supplemented with 10% fetal bovine serum (Tissue Culture Services), […] glutamine and 100 μg/ml of gentamicin or 100 units/ml and 100 μg/ml of penicillin/streptomycin antibiotics (Sigma Chemicals). The cells were maintained in a water-humidified atmosphere of 9% CO2at 37° C. Cells were passaged using 0.025% trypsin (Gibco) in DMEM, and were seeded at a density of 1×10^4 cells/cm^2.
Neuro-2a cells were seeded in 25cm^2 flasks (Costar) at a density of 1×10^4 cells/cm^2. Following a recovery period of 24 h, the agent to be examined was added to the cells in a vehicle of dimethyl sulphoxide (DMSO), the volume of which was 0.2% of the total volume of medium bathing the cells. A flask containing the DMSO vehicle alone was employed as control. Following incubation for 48h, cells were examined using an inverted phase contrast microscope (Leitz Diavert) and photographed (Ilford 50ASA film). Cells were then harvested by trypsinization and were counted using a haemocytometer (improved Neubauer model).

For series [4] the following is noted: literature; cited from earlier work.
The conditions of series [5]: experimental models; literature; cited from earlier work.
The conditions of series [6]: human; literature; cited from earlier work.
Series [7] deals with neural derived cell proliferation. The conditions noted are these: literature; cited from earlier work.
For series [8], the system named is Neural Cell Adhesion Molecule (NCAM) in neuro-2a neuroblastoma cells. Description: NCAM immunofluorescence microscopy. The conditions noted are these: 1.0 mm; compared to control cells. It counts as cell-based, mouse. Here is the method:
FIGS. 3A-1, 3A-2 and 3B: Neural Cell Adhesion Molecule (NCAM) immunofluorescence in neuro-2a neuroblastoma cells. […] Panel B. Neuroblastoma cells were cultured for 48 hours in the presence of increasing concentrations of 2-n-butyl-4-pentynoic acid and 2-n-pentyl-4-pentynoic acid. They were then fixed and prepared for staining with rabbit anti-NCAM antibody. A second anti-rabbit antibody conjugated to rhodamine was incubated with the cells to detect bound anti-NCAM antibody. […] Immunofluorescence is expressed as mean +/− SEM.
Cells were seeded in 24-well plates at a density of 1×10^4 cells/cm^2. Following a recovery period 24 h they were exposed for an additional 48 h to the drug under investigation. […] The cells were again washed three times with phosphate buffered saline pH 7.4 and were then mounted using Citifluor (Agar Scientific) containing a fluorescence enhancer. Fluorescence of rhodamine was visualized using an excitatory wavelength of 535 nm (Leica filter block N2.1) on a Leitz DMRB fluorescence microscope. Fluorescence intensity was examined at points of cell-cell contact using a Quantimet 500 Image Analysis System. Fluorescence intensity is expressed as grey level at points of cell contact relative to that observed in the control.

The values that follow come from USRE37670E1, “Antiproliferative and neurotrophic molecules” (American Biogenetics Inc., priority 1994, dated 2002).

As for `C#CCC(CCCCCC)C(=O)O` (racemic) [2-n-hexyl-4-pentynoic acid, (±)-2-(2-propinyl)-Octanoic acid], in series [1], the teratogenic potency result is listed as “most potent”.
Take `C#CCC(CCCC)C(=O)O` (stereo not drawn) [2-n-butyl-4-pentynoic acid]: the neurite outgrowth entry in series [2] (1.0 mM, 2 mM) is recorded as “Induction of neurite outgrowth”. In addition, in series [1], the teratogenic potency result is recorded as “most potent”.
Take `CC#CCC(CCC)C(=O)O` (stereo not drawn) [VI]: in series [3], the “antiproliferative potency / activity” value is given as “lowers, but does not abolish”. For the same molecule, in series [2], the cellular neurotrophic activity entry is given as “lowers, but does not abolish”. In addition, in series [4], the teratogenic activities result is listed as “very low or undetectable”. In addition, the anticonvulsant properties entry in series [5] is listed as “good”.
Take `CC/C=C(\CCC)C(=O)O` [IV]: the “antiproliferative potency / activity” value in series [3] is on record as “lowers, but does not abolish”. Besides, in series [2], the cellular neurotrophic activity entry is “lowers, but does not abolish”. Also, in series [4], the teratogenic activities result is listed as “very low or undetectable”. Further, in series [5], the anticonvulsant properties entry is given as “good”.
Turning to `CCCC(CCC)C(=O)O` [valproate, valproic acid], in series [6], the “transfer into the central nervous system” value is recorded as “very limited”. Further, the antiproliferative action result in series [7] is given as “potently inhibit”.
In the case of `C#CC[C@H](CCC)C(=O)O` [S-2-n-propyl-4-pentynoic acid], in series [4], the “teratogenic potency of S-enantiomer relative to R-enantiomer” value is listed as “significantly greater”.
For `C=CCC(CCC)C(=O)O` (stereo not drawn) [Example 4-en-VPA, 2-n-propyl-4-pentenoic acid], the “teratogenic potency of S-enantiomer relative to R-enantiomer” value in series [4] is “more potent”.
With `C#CCC(CCC)C(=O)O` (stereo not drawn) [2-n-propyl-4-pentynoic acid], the teratogenic potency entry in series [1] is given as “most potent”. Also, in series [4], the “teratogenic potency of S-enantiomer relative to R-enantiomer” value was “more potent”.
On to `C/C=C\CC(CCC)C(=O)O` (stereo not drawn) [V], for which the “antiproliferative potency / activity” value in series [3] is reported as “lowers, but does not abolish”. The cellular neurotrophic activity result in series [2] was “lowers, but does not abolish”.
In the case of `C#CCC(CCCCC)C(=O)O` (stereo not drawn) [2-n-pentyl-4-pentynoic acid], the neurite outgrowth entry in series [2] (0.3 mM, 0.5 mM) is listed as “Induction of neurite outgrowth”. The “immunofluorescence directed against NCAM” value in series [8] is given as “increased immunofluorescence”. Also, the teratogenic potency entry in series [1] is recorded as “most potent”.
In the case of `CCCC(CCC)C(N)=O` [valpromide], the teratogenic activities entry in series [4] was “non-teratogenic”. Moreover, in series [7], the antiproliferative action entry is “not antiproliferative”.
As to `C#CCC(CC(C)C)C(=O)O` (stereo not drawn), the “antiproliferative potency / activity” value in series [3] was “low”. Besides, the prodifferentiative potency entry in series [2] was “low”. The teratogenic potency result in series [1] is recorded as “low”.
